Laboratory results published in US20250339377A1, “PHARMACEUTICAL COMPOSITION OF NUCLEOSIDE-DERIVED COMPOUND, PREPARATION METHOD THEREFOR, AND USE THEREOF” (SHENZHEN ANTIV PHARMA CO., LTD., priority 2022, published 2025).

Key:
Format in all cases: physicochemical
[1] = Compatibility of raw material and auxiliary material; conditions: 60° C., 25° C./90% RH, 40° C./75% RH, illumination; 30 days
Text: Operation: Common auxiliary materials of solid oral dosage forms were selected to be mixed with the SHEN26 drug substance in different ratios, and the mixtures were placed under different conditions and separately taken out at different time points. The compatibility of the drug substance and the auxiliary materials was judged by taking the appearance, the hygroscopic weight gain, the content and the related substance as indexes. For the ratio of the raw and auxiliary materials, according to “Basic Technical Guidelines for Research of Chemical Drug Formulation” and the specification of the formulation, the auxiliary material with a relatively large amount was determined according to a ratio of main drug:diluent=1:5, the auxiliary material with a moderate amount (such as croscarmellose sodium) was mixed according to a ratio of main drug:disintegrant=1:1, and the auxiliary material with a relatively small amount (such as magnesium stearate) was mixed according to a ratio of main drug:lubricant=5:1. The manufacturer information of the raw and auxiliary materials in the compatibility experiment and the ratio of raw and auxiliary materials are shown in Table 16. […]

[2] = Micromeritic properties of API and formula powders
Text: Detection of micromeritic properties: The micromeritic properties of the SHEN26 compound raw material and the micromeritic properties of the mixed powder obtained by directly mixing the SHEN26 compound and other auxiliary materials were detected.
Preparation method: pulverizing the compound SHEN26, sieving the compound (sieving separately with a 40-mesh sieve and a 60-mesh sieve), mixing with a pharmaceutically acceptable excipient, performing dry granulation, adding an external lubricant, mixing, and filling capsules to give a capsule of the compound SHEN26. Observation of phenomenon: After dry granulation, the micromeritic properties were examined, and the results are shown in Table 12. Dissolution detection: The compound SHEN26 capsules obtained in Example 4 were separately detected for the dissolution, and the results are shown in Table 13.

[3] = Stability investigation - related substance; conditions: API, package N/A, condition N/A
Experimental: 37167-054A and 37167-054B were packed as described in Table 17 and Table 18, then separately placed under illumination (open), 40° C./75% RH (open), and 40° C./75% RH (closed) conditions for 0 day, 10 days, and 30 days, and detected for the dissolution and related substance.

Compatibility with auxiliary materials (appearance, hygroscopic weight gain, content, related substance) [1]: good compatibility
Angle of repose (°) [2]: 40.98 °
Bulk density [2]: 0.53 g/mL
Carr index (%) [2]: 27.40%
Tap density [2]: 0.73 g/mL
Related substance % RRT 0.37 [3]: 0.26%
Related substance % RRT 0.54 [3]: 0.35%
Related substance % RRT 1.03 [3]: 0.15%
Related substance % RRT 1.30 [3]: 0.05%
Total impurity % [3]: 0.81%
SMILES: CC(C)C(=O)OC[C@H]1O[C@@](C#N)(c2ccc3c(N)ncnn23)[C@H](O)[C@@H]1O [SHEN26]
